Reference: patent EP4745135A1 (Gluetacs Therapeutics (Shanghai) Co., Ltd., priority 2023, dated 2025)

Experiments:
[1] = tested on: Human multiple myeloma cell (MM.1S); assay: Tumor cell proliferation inhibition (CellTiter-Meiluncell luminescent cell viability assay); details: for inhibition at 0.01 µM / inhibition at 0.5 µM: Homo sapiens, MM1.S, 96 h; for inhibition at 0.01 µM: read-out: Inhibition Rate at 10 nM (%); for inhibition at 0.5 µM: read-out: Inhibition Rate at 500 nM (%)
[2] = tested on: Human multiple myeloma peripheral blood B lymphocyte cell (RPMI-8226); assay: as above; details: RPMI-8226, 96 h; for inhibition at 0.01 µM: read-out: Inhibition Rate at 10 nM (%); for inhibition at 0.5 µM: read-out: Inhibition Rate at 500 nM (%)
[3] = target: T1, human Cereblon WT GST-tagged protein (Homo sapiens, UniProt Q96SW2); assay: CRBN-binding affinity, HTRF (CEREBLON BINDING kit); details: for inhibition at 0.5 µM: read-out: Inhibition Rate at 0.5 µM (%); for inhibition at 2 µM: read-out: Inhibition Rate at 2 µM (%)
T1 construct: purchased CISBIO 64BDCRBNPEH
T1 sequence (Q96SW2 whole entry): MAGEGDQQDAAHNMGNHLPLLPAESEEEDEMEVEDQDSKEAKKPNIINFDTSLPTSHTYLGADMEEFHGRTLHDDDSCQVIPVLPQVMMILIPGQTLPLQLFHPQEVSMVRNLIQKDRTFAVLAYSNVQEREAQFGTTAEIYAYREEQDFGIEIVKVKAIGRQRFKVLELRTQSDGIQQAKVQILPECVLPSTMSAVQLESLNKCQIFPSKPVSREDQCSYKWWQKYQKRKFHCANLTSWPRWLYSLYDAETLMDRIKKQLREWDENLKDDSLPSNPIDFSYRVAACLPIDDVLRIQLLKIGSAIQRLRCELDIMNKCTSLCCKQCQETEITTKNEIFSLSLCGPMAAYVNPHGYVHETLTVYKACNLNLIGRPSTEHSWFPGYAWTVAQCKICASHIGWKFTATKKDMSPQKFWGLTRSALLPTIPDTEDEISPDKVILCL

GSPT1 = assay: Western blot, degradation of substrate protein in hPBMCs; type: cell-based, Human
WEE1 = target: T2, WEE1 (Homo sapiens, UniProt P30291+Q96SW2); assay: as above; type: cell-based
T2 construct: effects of the compounds of the present disclosure on the expression of target proteins in cells; endogenous in cells; host or cells: human PBMCs (Milecell Biotechnologies)
T2 sequence (P30291 whole entry): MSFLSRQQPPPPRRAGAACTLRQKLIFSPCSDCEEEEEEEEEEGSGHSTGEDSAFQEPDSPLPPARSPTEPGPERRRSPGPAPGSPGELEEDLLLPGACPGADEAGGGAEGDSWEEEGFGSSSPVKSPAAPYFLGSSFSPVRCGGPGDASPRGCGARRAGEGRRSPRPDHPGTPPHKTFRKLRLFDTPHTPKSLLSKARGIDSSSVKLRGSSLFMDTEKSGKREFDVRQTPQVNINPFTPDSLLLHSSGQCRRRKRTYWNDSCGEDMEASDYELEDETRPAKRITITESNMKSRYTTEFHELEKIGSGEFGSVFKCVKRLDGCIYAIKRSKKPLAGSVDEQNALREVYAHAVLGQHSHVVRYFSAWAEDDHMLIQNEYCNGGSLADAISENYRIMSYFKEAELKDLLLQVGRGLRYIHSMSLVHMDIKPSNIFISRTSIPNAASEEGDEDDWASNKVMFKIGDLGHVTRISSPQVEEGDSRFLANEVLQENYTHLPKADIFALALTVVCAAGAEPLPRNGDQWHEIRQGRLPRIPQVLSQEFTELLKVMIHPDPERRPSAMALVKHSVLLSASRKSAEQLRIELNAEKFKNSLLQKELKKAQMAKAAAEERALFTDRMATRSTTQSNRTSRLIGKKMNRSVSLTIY
T2 sequence (Q96SW2 whole entry): as the sequence (Q96SW2 whole entry) above
T2 sequence (Q16531 whole entry partner): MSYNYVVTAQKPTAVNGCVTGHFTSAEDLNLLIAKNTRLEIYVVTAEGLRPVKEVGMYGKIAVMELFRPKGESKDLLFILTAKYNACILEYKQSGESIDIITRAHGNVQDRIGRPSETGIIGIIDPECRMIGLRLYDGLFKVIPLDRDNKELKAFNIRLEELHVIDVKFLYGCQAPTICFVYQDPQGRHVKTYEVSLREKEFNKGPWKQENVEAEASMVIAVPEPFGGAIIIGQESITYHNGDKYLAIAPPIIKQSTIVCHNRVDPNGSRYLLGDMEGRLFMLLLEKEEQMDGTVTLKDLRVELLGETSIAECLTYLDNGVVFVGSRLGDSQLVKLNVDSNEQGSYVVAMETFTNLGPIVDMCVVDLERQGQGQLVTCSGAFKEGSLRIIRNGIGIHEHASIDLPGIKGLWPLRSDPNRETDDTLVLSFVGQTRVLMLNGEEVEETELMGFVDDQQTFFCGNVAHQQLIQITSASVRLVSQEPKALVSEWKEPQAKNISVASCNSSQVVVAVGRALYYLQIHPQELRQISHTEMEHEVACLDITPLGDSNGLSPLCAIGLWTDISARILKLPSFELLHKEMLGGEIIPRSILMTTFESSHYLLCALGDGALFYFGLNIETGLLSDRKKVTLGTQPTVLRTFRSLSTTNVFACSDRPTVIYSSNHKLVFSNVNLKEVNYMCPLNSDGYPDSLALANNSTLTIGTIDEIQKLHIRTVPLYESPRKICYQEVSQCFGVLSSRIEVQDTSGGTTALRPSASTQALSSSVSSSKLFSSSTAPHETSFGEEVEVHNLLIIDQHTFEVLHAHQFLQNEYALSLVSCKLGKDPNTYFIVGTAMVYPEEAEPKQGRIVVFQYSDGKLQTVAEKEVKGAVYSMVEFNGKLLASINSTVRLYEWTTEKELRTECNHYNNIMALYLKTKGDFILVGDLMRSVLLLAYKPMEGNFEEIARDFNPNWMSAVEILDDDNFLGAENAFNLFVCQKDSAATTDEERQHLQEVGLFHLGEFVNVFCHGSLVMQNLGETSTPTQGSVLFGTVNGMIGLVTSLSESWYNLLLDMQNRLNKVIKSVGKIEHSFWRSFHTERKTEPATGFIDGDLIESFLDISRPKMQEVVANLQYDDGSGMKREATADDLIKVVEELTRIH

IKZF3 = target: T3, IKZF3 (Homo sapiens, UniProt Q96SW2+Q9UKT9); assay: as above; type: cell-based
T3 construct: effects of the compounds of the present disclosure on the expression of target proteins in cells; endogenous in cells; host or cells: human PBMCs (Milecell Biotechnologies)
T3 sequence (Q9UKT9 whole entry): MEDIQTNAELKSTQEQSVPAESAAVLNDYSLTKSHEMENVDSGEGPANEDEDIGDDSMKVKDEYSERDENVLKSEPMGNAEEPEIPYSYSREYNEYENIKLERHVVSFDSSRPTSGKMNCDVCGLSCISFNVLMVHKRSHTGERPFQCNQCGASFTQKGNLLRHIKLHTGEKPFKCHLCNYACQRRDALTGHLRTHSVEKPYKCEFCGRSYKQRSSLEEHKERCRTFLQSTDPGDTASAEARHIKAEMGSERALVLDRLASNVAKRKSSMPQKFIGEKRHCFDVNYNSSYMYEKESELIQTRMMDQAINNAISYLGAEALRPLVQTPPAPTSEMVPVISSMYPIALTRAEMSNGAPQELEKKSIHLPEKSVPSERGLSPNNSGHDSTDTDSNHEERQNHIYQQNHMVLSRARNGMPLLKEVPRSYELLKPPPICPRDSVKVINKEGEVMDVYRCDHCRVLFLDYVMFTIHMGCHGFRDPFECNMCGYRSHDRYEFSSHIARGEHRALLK
T3 sequence (Q96SW2 whole entry): as the sequence (Q96SW2 whole entry) above
T3 sequence (Q16531 whole entry partner): as the sequence (Q16531 whole entry partner) above

IKZF1 = target: T4, IKZF1 (Homo sapiens, UniProt Q13422+Q96SW2); assay: as above; type: cell-based
T4 construct: effects of the compounds of the present disclosure on the expression of target proteins in cells; endogenous in cells; host or cells: human PBMCs (Milecell Biotechnologies)
T4 sequence (Q13422 whole entry): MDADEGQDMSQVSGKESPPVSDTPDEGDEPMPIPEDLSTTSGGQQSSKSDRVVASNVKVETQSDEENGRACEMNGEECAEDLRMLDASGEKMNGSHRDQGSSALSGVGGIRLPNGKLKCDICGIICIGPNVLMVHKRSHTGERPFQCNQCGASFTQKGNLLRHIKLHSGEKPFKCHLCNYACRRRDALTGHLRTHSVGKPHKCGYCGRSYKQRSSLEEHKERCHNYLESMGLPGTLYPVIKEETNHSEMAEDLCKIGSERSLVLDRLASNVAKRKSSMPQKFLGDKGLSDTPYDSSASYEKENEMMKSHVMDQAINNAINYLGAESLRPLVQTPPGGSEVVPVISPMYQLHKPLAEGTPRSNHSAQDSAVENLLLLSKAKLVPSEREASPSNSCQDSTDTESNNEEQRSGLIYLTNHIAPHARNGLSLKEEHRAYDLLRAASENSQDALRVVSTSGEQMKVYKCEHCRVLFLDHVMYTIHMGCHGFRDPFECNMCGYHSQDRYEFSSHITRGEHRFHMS
T4 sequence (Q96SW2 whole entry): as the sequence (Q96SW2 whole entry) above
T4 sequence (Q16531 whole entry partner): as the sequence (Q16531 whole entry partner) above

IKZF2 = target: T5, IKZF2 (Homo sapiens, UniProt Q96SW2+Q9UKS7); assay: as above; type: cell-based
T5 construct: effects of the compounds of the present disclosure on the expression of target proteins in cells; endogenous in cells; host or cells: human PBMCs (Milecell Biotechnologies)
T5 sequence (Q9UKS7 whole entry): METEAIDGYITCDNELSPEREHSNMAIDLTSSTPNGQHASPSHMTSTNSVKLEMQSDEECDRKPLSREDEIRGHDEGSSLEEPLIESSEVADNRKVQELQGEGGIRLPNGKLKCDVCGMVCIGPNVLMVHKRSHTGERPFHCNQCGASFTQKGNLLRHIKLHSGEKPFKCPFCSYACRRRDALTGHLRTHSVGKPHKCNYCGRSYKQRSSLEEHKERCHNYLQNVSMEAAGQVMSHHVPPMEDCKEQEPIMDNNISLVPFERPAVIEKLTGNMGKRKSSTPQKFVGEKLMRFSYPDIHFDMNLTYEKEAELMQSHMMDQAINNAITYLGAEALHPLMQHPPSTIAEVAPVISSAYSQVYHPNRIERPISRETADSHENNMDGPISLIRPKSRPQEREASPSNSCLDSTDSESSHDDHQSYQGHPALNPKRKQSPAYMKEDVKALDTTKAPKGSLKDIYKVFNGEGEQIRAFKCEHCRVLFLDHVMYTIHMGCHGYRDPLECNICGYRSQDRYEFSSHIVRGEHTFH
T5 sequence (Q96SW2 whole entry): as the sequence (Q96SW2 whole entry) above
T5 sequence (Q16531 whole entry partner): as the sequence (Q16531 whole entry partner) above

CK1α = target: T6, CK1α (Homo sapiens, UniProt P48729+Q96SW2); assay: as above; type: cell-based
T6 construct: effects of the compounds of the present disclosure on the expression of target proteins in cells; endogenous in cells; host or cells: human PBMCs (Milecell Biotechnologies)
T6 sequence (P48729 whole entry): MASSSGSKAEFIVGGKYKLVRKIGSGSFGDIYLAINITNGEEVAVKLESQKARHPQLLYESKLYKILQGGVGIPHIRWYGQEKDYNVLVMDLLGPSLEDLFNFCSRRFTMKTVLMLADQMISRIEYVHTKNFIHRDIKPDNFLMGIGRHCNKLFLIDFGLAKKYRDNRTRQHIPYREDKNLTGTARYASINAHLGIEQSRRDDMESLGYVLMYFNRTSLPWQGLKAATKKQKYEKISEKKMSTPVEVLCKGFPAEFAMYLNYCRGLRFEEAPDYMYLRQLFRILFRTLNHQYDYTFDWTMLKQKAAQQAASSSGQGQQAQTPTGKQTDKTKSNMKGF
T6 sequence (Q96SW2 whole entry): as the sequence (Q96SW2 whole entry) above
T6 sequence (Q16531 whole entry partner): as the sequence (Q16531 whole entry partner) above

[4] = tested on: Human myeloid monocytic leukemia cell (MV-4-11); assay: Tumor cell proliferation inhibition (CellTiter-Meiluncell luminescent cell viability assay); details: MV4-11, 96 h; for inhibition at 0.01 µM: read-out: Inhibition Rate at 10 nM (%); for inhibition at 0.5 µM: read-out: Inhibition Rate at 500 nM (%)
[5] = tested on: Human acute T lymphocytic leukemia cell (Molt4); assay: as above; details: MOLT-4, 96 h; for inhibition at 0.01 µM: read-out: Inhibition Rate at 10 nM (%); for inhibition at 0.5 µM: read-out: Inhibition Rate at 500 nM (%)
[6] = 24 hours treatment, compounds at 50 nM and 500 nM (concentration behind the class not stated)
[7] = Western blot, 24 hours of compound treatment, compounds tested at 50 nM and 500 nM (concentration for the table not stated)

| SMILES | inhibition at 0.01 µM [1] [%] | inhibition at 0.5 µM [1] [%] | inhibition at 0.01 µM [2] [%] | inhibition at 0.5 µM [2] [%] | inhibition at 0.01 µM [4] [%] | inhibition at 0.5 µM [4] [%] | inhibition at 0.5 µM [3] [%] | inhibition at 2 µM [3] [%] | GSPT1 substrate protein remaining % (GSPT1; [7]) | Wee1 substrate protein remaining % (WEE1; [7]) | IKZF3 substrate protein remaining % (IKZF3; [7]) | IKZF 1 substrate protein remaining % (IKZF1; [7]) | IKZF2 substrate protein remaining % (IKZF2; [7]) | CK1α substrate protein remaining % (CK1α; [7]) | other results |
| --- | --- | --- | --- | --- | --- | --- | --- | --- | --- | --- | --- | --- | --- | --- | --- |
| N#Cc1ccc(N2CCN(Cc3ccc(COc4cccc5c4CN([C@H]4CCC(=O)NC4=O)C5=S)cc3)CC2)c(F)c1 [GT-05957, (S)-4-(4-(4-(((2-(2,6-dioxopiperidin-3-yl)-1-thioxoisoindolin-4-yl)oxy)methyl)benzyl)piperazin-1-yl)-3-fluorobenzonitrile] | 80 to 100 | 80 to 100 | 50 to 60 | 60 to 70 | 25 to 30 | 40 to 60 | – | – | – | – | – | – | – | – | IC50 ([3]; CRBN binding, HTRF, 3 hours at room temperature, read-out: HTRF IC50): 100 to 500 nM; GSPT1 substrate protein remaining % (GSPT1; [6]): A (0% ≤ substrate protein remaining % ≤ 80%); Wee1 substrate protein remaining % (WEE1; [6]): B (80%< substrate protein remaining %≤ 100%); IKZF3 substrate protein remaining % (IKZF3; [6]): A (0% ≤ substrate protein remaining % ≤ 80%); IKZF 1 substrate protein remaining % (IKZF1; [6]): A (0% ≤ substrate protein remaining % ≤ 80%); IKZF2 substrate protein remaining % (IKZF2; [6]): A (0% ≤ substrate protein remaining % ≤ 80%); CK1α substrate protein remaining % (CK1α; [6]): B (80%< substrate protein remaining %≤ 100%) |
| O=C1CCC(N2Cc3c(CN4CCN(C(c5ccc(F)cc5)c5ccc(F)cc5)CC4)cccc3C2=S)C(=O)N1 (centres unmarked) [GT-08202, 3-(4-((4-(bis(4-fluorophenyl)methyl)piperazin-1-yl)methyl)-1-thioxoisoindolin-2-yl)piperidine-2,6-dione] | – | – | 20 to 30 | 40 to 50 | 30 to 40 | 40 to 60 | 30 to 40 | 60 to 80 | A (0% ≤ substrate protein remaining % ≤ 80%) | A (0% ≤ substrate protein remaining % ≤ 80%) | A (0% ≤ substrate protein remaining % ≤ 80%) | A (0% ≤ substrate protein remaining % ≤ 80%) | A (0% ≤ substrate protein remaining % ≤ 80%) | B (80%< substrate protein remaining %≤ 100%) | – |
| O=C1CCC(N2Cc3cc(CN4CCN(c5cccc(Br)c5)CC4)ccc3C2=S)C(=O)N1 (centres unmarked) [GT-08238, 3-(5-((4-(3-bromophenyl)piperazin-1-yl)methyl)-1-thioxoisoindolin-2-yl)piperidine-2,6-dione] | 70 to 80 | 70 to 80 | 20 to 30 | 50 to 60 | 5 to 10 | 80 to 100 | 53 to 60 | 80 to 100 | A (0% ≤ substrate protein remaining % ≤ 80%) | B (80%< substrate protein remaining %≤ 100%) | B (80%< substrate protein remaining %≤ 100%) | B (80%< substrate protein remaining %≤ 100%) | B (80%< substrate protein remaining %≤ 100%) | B (80%< substrate protein remaining %≤ 100%) | inhibition at 0.01 µM [5]: 30 to 40%; inhibition at 0.5 µM [5]: 80 to 100% |
| O=C1CCC(N2Cc3c(CN4CCN(C(=O)C5=C(c6ccc(F)cc6)CCCC5)CC4)cccc3C2=S)C(=O)N1 (centres unmarked) [GT-08294, 3-(4-((4-(4'-fluoro-3,4,5,6-tetrahydro-[1,1'-biphenyl]-2-carbonyl)piperazin-1-yl)methyl)-1-thioxoisoindolin-2-yl)piperidine-2,6-dione] | – | – | 20 to 30 | 40 to 50 | 40 to 60 | 60 to 80 | 30 to 40 | 80 to 100 | B (80%< substrate protein remaining %≤ 100%) | B (80%< substrate protein remaining %≤ 100%) | B (80%< substrate protein remaining %≤ 100%) | B (80%< substrate protein remaining %≤ 100%) | B (80%< substrate protein remaining %≤ 100%) | A (0% ≤ substrate protein remaining % ≤ 80%) | – |
| O=C1CCC(N2Cc3c(CN4CCN(c5cccc6sccc56)CC4)cccc3C2=S)C(=O)N1 (centres unmarked) [GT-08364, 3-(4-((4-(benzo[b]thiophen-4-yl)piperazin-1-yl)methyl)-1-thioxoisoindolin-2-yl)piperidine-2,6-dione] | 40 to 50 | – | 20 to 30 | 40 to 50 | – | – | 40 to 53 | 80 to 100 | A (0% ≤ substrate protein remaining % ≤ 80%) | A (0% ≤ substrate protein remaining % ≤ 80%) | B (80%< substrate protein remaining %≤ 100%) | B (80%< substrate protein remaining %≤ 100%) | B (80%< substrate protein remaining %≤ 100%) | B (80%< substrate protein remaining %≤ 100%) | Inhibition Rate at 500 nM (%) ([1]; MM.1S, 500 nM, 96 hours): la8 |
| O=C1CCC(N2Cc3cc(CN4CC=C(c5ccnc(Cl)c5Cl)CC4)ccc3C2=S)C(=O)N1 (centres unmarked) [GT-08482, 3-(5-((2',3'-dichloro-3,6-dihydro-[4,4'-bipyridin]-1(2H)-yl)methyl)-1-thioxoisoindolin-2-yl)piperidine-2,6-dione] | 50 to 60 | 80 to 100 | 10 to 20 | 60 to 70 | 40 to 60 | 80 to 100 | 60 to 80 | 80 to 100 | A (0% ≤ substrate protein remaining % ≤ 80%) | A (0% ≤ substrate protein remaining % ≤ 80%) | B (80%< substrate protein remaining %≤ 100%) | B (80%< substrate protein remaining %≤ 100%) | B (80%< substrate protein remaining %≤ 100%) | B (80%< substrate protein remaining %≤ 100%) | inhibition at 0.01 µM [5]: -5 to 0%; inhibition at 0.5 µM [5]: 80 to 100% |
| O=C1CCC(N2Cc3cc(CN4CCN(c5cc(Cl)cc(Cl)c5)CC4)ccc3C2=S)C(=O)N1 (centres unmarked) [GT-08624, 3-(5-((4-(3,5-dichlorophenyl)piperazin-1-yl)methyl)-1-thioxoisoindolin-2-yl)piperidine-2,6-dione] | 20 to 30 | 80 to 100 | 10 to 20 | 60 to 70 | 18 to 25 | 80 to 100 | 30 to 40 | 80 to 100 | A (0% ≤ substrate protein remaining % ≤ 80%) | B (80%< substrate protein remaining %≤ 100%) | B (80%< substrate protein remaining %≤ 100%) | B (80%< substrate protein remaining %≤ 100%) | B (80%< substrate protein remaining %≤ 100%) | B (80%< substrate protein remaining %≤ 100%) | – |
